In publication PMC7356390, “Dehydrozingerone, a Curcumin Analog, as a Potential Anti-Prostate Cancer Inhibitor In Vitro and In Vivo” (Molecules, 2020):

Experiments:
[1] = test system: PLS10 cells; experiment: Cell cycle analysis (Guava cycle assay); type: cell-based, rat; conditions: 48 h
Protocol: Cells were treated with Cur (0–20 μM) and DZG (0–200 μM) for 48 h. Cells were harvested for analysis of the cell cycle distribution by the Guava cycle (a,b), while cyclin D1 expression was determined by Western blot analysis (c,d). The level of protein expression was quantified by IMAGE J software. Data are presented as mean ± S.D. of three independent experiments. * p < 0.05 and ** p < 0.01 vs. control (one-way ANOVA, Dunnett’s multiple comparisons test, tested groups vs. control group). TEXT PRINTED IN THE PICTURE: (a) Cur: G1: 39.76±7.07 (Cur (μM): 5); S: 15.20±2.22 (Cur (μM): 5); G2/M: 45.02±8.26 (Cur (μM): 5); G1: 43.45±4.60 (Cur (μM): 10); S: 15.45±1.20 (Cur (μM): 10); G2/M: 40.90±6.08 (Cur (μM): 10); G1: 41.00±2.40 (Cur (μM): 15); S: 16.35±2.05 (Cur (μM): 15); G2/M: 42.60±4.67 (Cur (μM): 15); G1: 46.28±4.32 (Cur (μM): 20); S: 13.68±2.05 (Cur (μM): 20); G2/M: 43.10±5.50 (Cur (μM): 20) | (b) DZG: G1: 36.75±0.35 (DZG (μM): 50); S: 16.30±0.71 (DZG (μM): 50); G2/M: 46.95±0.35 (DZG (μM): 50); G1: 36.73±3.41 (DZG (μM): 100); S: 17.17±1.29 (DZG (μM): 100); G2/M: 46.10±2.78 (DZG (μM): 100); G1: 42.88±7.45 (DZG (μM): 150); S: 17.90±1.82 (DZG (μM): 150); G2/M: 39.25±6.13 (DZG (μM): 150); G1: 52.95±7.52 (DZG (μM): 200); S: 16.23±1.02 (DZG (μM): 200); G2/M: 31.00±6.67 (DZG (μM): 200) DOUBTS OF THE COPYIST ABOUT THIS PICTURE: Control columns (panel a: G1: 38.86±4.93, S: 14.52±1.90, G2/M: 46.60±5.74; panel b: G1: 35.93±2.45, S: 15.90±2.11, G2/M: 48.18±2.51) are printed but left out of lines, as Control is not a substance
The PLS10 cells (1.0 × 10^5 cells per well) were plated into a 6-well plate overnight. Then, cells were treated with increasing concentrations of Cur (0–20 µM) or DZG (0–200 µM) in the present of 0.5% DMSO (vehicle control) for the next 48 h. Cell morphology was investigated and photographed under a microscope. The cell cycle distribution was determined using a Guava cycle assay (Guava Technologies, Hayward, CA, USA) according to the manufacturer’s protocols. Briefly, the cells were removed by trypsinization, and the cell suspension was fixed in ice-cold 70% methanol at −20°C. After that, the methanol was removed, and the cells were washed with PBS before being stained with a Guava cycle reagent for 30 min. Cell cycle distribution was determined on a Guava PCA Instrument using Guava®ViacountTM Software (Merck Ltd., Darmstadt, Germany).

[2] = test system: cyclin D1 expression in PLS10 cells; experiment: Western blot analysis of cyclin D1 expression; type: cell-based, rat; conditions: 48 h, p < 0.01 vs control
Protocol: Cells were treated with Cur (0–20 μM) and DZG (0–200 μM) for 48 h. Cells were harvested for analysis of the cell cycle distribution by the Guava cycle (a,b), while cyclin D1 expression was determined by Western blot analysis (c,d). The level of protein expression was quantified by IMAGE J software. Data are presented as mean ± S.D. of three independent experiments. * p < 0.05 and ** p < 0.01 vs. control (one-way ANOVA, Dunnett’s multiple comparisons test, tested groups vs. control group). […]
Protein concentration was determined using the Bradford method (Thermo Fisher Scientific, Waltham, MA, USA). […]

SMILES | G1 phase cell population ([1]; Cur 20 µM) [%] | cyclin D1 expression ([2]; 15 and 20 µM) | G1 phase cell population ([1]; DZG 150 µM) [%] | G2/M phase cell population ([1]; DZG 150 µM) [%] | G1 phase cell population ([1]; DZG 200 µM) [%] | G2/M phase cell population ([1]; DZG 200 µM) [%] | cyclin D1 expression ([2]; 150 and 200 µM)
COc1cc(/C=C/C(=O)CC(=O)/C=C/c2ccc(O)c(OC)c2)ccc1O [Cur, Curcumin] | 46 | decreased |  |  |  |  | 
COc1cc(/C=C/C(C)=O)ccc1O [DZG, (E)-4-(4-hydroxy-3-methoxyphenyl)-but-3-en-2-one] |  |  | 43 | 39 | 53 | 31 | decreased
